# Assay results reported in PMC2896895 (Cell cycle (Georgetown, Tex.), 2009).
# Experiments:
# [1] = system: AR-dependent luciferase reporter (ARE-Luc) in CWR22R cells; assay: AR-dependent luciferase reporter; format: cell-based, human; conditions: 10μM of compounds, 24h, vs 0.1% DMSO
# C4-2 cells = assay: Colony formation assay, C4-2; format: cell-based, human
# [2] = system: Prostate Specific Antigen (PSA) expression in C4-2 cells; assay: PSA secretion by C4-2 cells; format: cell-based, human; conditions: 10μM of compounds, 72h, PSA in medium vs 0.1% DMSO
# LNCaP cells = assay: Colony formation assay, LNCaP; format: cell-based, human
# CWR22R cells = assay: Colony formation / growth assay, CWR22R; format: cell-based, human
# PSA levels = conditions: Phase I clinical trial, castration resistant PCa; cited from earlier work
# AR LBD = conditions: non-competitive antagonists; cited from earlier work
# [3] = number of colonies, vs 0.1% DMSO
smiles,measurement,setting,value
"CC(O)(CS(=O)(=O)c1ccc(F)cc1)C(=O)Nc1ccc(C#N)c(C(F)(F)F)c1 (stereo not shown) [Bic, bicalutamide]",Activity of ARE-Luc in CWR22R11 cells,[1],43 % of DMSO
same,growth of androgen-independent C4-2 cells,"C4-2 cells; colony formation, 10μM",did not suppress growth
same,"Survival of cells in the presence of 10μM of a compound (DMSO=100%), C4-2",C4-2 cells; [3],91%
same,PSA secretion in C4-2 cells,[2],0 % of DMSO
same,growth of androgen-sensitive LNCaP cells,"LNCaP cells; colony formation, 10μM",suppressed growth
same,"Survival of cells in the presence of 10μM of a compound (DMSO=100%), LNCaP",LNCaP cells; [3],19%
same,growth of androgen-independent CWR22R cells,"CWR22R cells; colony formation, 10μM",did not suppress growth
same,"Survival of cells in the presence of 10μM of a compound (DMSO=100%), CWR22R",CWR22R cells; [3],100%
CNC(=O)c1ccc(N2C(=S)N(c3ccc(C#N)c(C(F)(F)F)c3)C(=O)C2(C)C)cc1F [MDV3100],PSA levels in patients,PSA levels,efficacy in decreasing PSA levels
CNC(=O)c1ccc(N2C(=S)N(c3ccc(C#N)c(C(F)(F)F)c3)C(=O)C23CCC3)cc1F [RD162],binding to the AR LBD,AR LBD,bind with high affinity
